{"source": "paper PMC11470957", "about": "“Principles of paralog-specific targeted protein degradation engaging the C-degron E3 KLHDC2” (Nature Communications, 2024)", "target": "BRD4 (Homo sapiens, UniProt O60885)", "assay": "Western blot of BRD4 levels after cellular dosing", "note": "Where “and” joins values, the source holds several entries; their conditions need not be identical. Equal values may be shown once.", "data": [{"smiles": "COC(=O)CNC(=O)Cc1csc(-c2ccc3cccc(OCCN4CCN(C(=O)C[C@@H]5N=C(c6ccc(Cl)cc6)c6c(sc(C)c6C)-n6c(C)nnc65)CC4)c3c2)n1", "note": "[SJ46420]", "values": [{"measurement": "BRD4 level relative to DMSO (100%)", "setting": "22Rv1, 0.16µM, 24 h, Fig S6f", "result": "105 +/- 5.8%"}, {"measurement": "BRD4 level relative to DMSO (100%)", "setting": "22Rv1, 0.63µM, 24 h, Fig S6f", "result": "101 +/- 7.2%"}, {"measurement": "BRD4 level relative to DMSO (100%)", "setting": "22Rv1, 1.3µM, 24 h, Fig S6f", "result": "89 +/- 2.9%"}, {"measurement": "BRD4 level relative to DMSO (100%)", "setting": "22Rv1, 2.5µM, 24 h, Fig S6f", "result": "88 +/- 11%"}, {"measurement": "BRD4 level relative to DMSO (100%)", "setting": "22Rv1, 5µM, 24 h, Fig S6f", "result": "83 +/- 10%"}, {"measurement": "BRD4 level relative to DMSO (100%)", "setting": "22Rv1, 10µM, 24 h, Fig S6f", "result": "68 +/- 15%"}, {"measurement": "Dmax", "setting": "22Rv1, read-out: BRD4 Dmax, 22Rv1, 24 h dose", "result": 30, "unit": "%"}, {"measurement": "BRD4 level relative to DMSO (100%)", "setting": "293T, 2.5µM, 24 h, Fig S6a", "result": "98 +/- 5.3%"}, {"measurement": "BRD4 level relative to DMSO (100%)", "setting": "293T, 5µM, 24 h, Fig S6a", "result": "79 +/- 6.6%"}, {"measurement": "BRD4 level relative to DMSO (100%)", "setting": "AU565, 0.2µM, 8 h, Fig S6c", "result": "82 +/- 4.7%"}, {"measurement": "BRD4 level relative to DMSO (100%)", "setting": "AU565, 1µM, 8 h, Fig S6c", "result": "53 +/- 5.1%"}, {"measurement": "BRD4 level relative to DMSO (100%)", "setting": "AU565, 5µM, 8 h, Fig S6c", "result": "4.1 +/- 1.3%"}, {"measurement": "BRD4 level, Western blot quantification (DMSO = 100)", "setting": "Fig 6b, KO/Rescue, 5 uM", "result": "91.0765 and 107.689"}, {"measurement": "BRD4 level, Western blot quantification (DMSO = 100)", "setting": "Fig 6b, U2OS, 5 uM", "result": "77.4849 and 71.6749"}, {"measurement": "BRD4 level, Western blot quantification (DMSO = 100)", "setting": "Fig 6c, 1 uM", "result": "92.7102 and 86.955"}, {"measurement": "BRD4 level, Western blot quantification (DMSO = 100)", "setting": "Fig 6d, 1 uM", "result": "67.4942 and 82.9736"}, {"measurement": "BRD4 level, Western blot quantification (DMSO = 100)", "setting": "Fig 6d, 1uM together with 1uM MLN4924", "result": "118.408 and 100.267"}, {"measurement": "BRD4 level, Western blot quantification (DMSO = 100)", "setting": "Fig S6a, 293T cells, 2.5 uM", "result": "94.5347 and 102.135"}, {"measurement": "BRD4 level, Western blot quantification (DMSO = 100)", "setting": "Fig S6a, 293T cells, 5 uM", "result": "74.6014 and 84.7353"}, {"measurement": "BRD4 level, Western blot quantification (DMSO = 100)", "setting": "Fig S6b, MDA-MB468 Cells, 2 uM", "result": "86.0887 and 95.6433"}, {"measurement": "BRD4 level, Western blot quantification (DMSO = 100)", "setting": "Fig S6b, MDA-MB468 Cells, 5 uM", "result": "75.9577 and 82.1258"}, {"measurement": "BRD4 level, Western blot quantification (DMSO = 100)", "setting": "Fig S6b, MDA-MB468 Cells, 10 uM", "result": "65.8655 and 71.3135"}, {"measurement": "BRD4 level, Western blot quantification (DMSO = 100)", "setting": "Fig S6c, AU565 Cells, 0.2 uM", "result": "78.2951 and 85.4236"}, {"measurement": "BRD4 level, Western blot quantification (DMSO = 100)", "setting": "Fig S6c, AU565 Cells, 1 uM", "result": "49.0527 and 56.2352"}, {"measurement": "BRD4 level, Western blot quantification (DMSO = 100)", "setting": "Fig S6c, AU565 Cells, 5 uM", "result": "3.1923 and 5.662"}, {"measurement": "BRD4 level, Western blot quantification (DMSO = 100)", "setting": "Fig S6e, PC3 KO/rescue Dose Response, 0.156 uM", "result": "98.9143 and 85.6296"}, {"measurement": "BRD4 level, Western blot quantification (DMSO = 100)", "setting": "Fig S6e, PC3 KO/rescue Dose Response, 0.313 uM", "result": "95.5722 and 70.9157"}, {"measurement": "BRD4 level, Western blot quantification (DMSO = 100)", "setting": "Fig S6e, PC3 KO/rescue Dose Response, 0.625 uM", "result": "77.9263 and 60.6542"}, {"measurement": "BRD4 level, Western blot quantification (DMSO = 100)", "setting": "Fig S6e, PC3 KO/rescue Dose Response, 1.25 uM", "result": "36.0358 and 57.3958"}, {"measurement": "BRD4 level, Western blot quantification (DMSO = 100)", "setting": "Fig S6e, PC3 KO/rescue Dose Response, 2.5 uM", "result": "28.2357 and 25.3138"}, {"measurement": "BRD4 level, Western blot quantification (DMSO = 100)", "setting": "Fig S6e, PC3 KO/rescue Dose Response, 5 uM", "result": "3.953 and 2.975"}, {"measurement": "BRD4 level, Western blot quantification (DMSO = 100)", "setting": "Fig S6e, PC3 KO/rescue Dose Response, 10uM", "result": "0.3603 and 0.6573"}, {"measurement": "BRD4 level, Western blot quantification (DMSO = 100)", "setting": "Fig S6f, 22RV1 KO/rescue Dose Response, 0.156 uM", "result": "101.401 and 109.713"}, {"measurement": "BRD4 level, Western blot quantification (DMSO = 100)", "setting": "Fig S6f, 22RV1 KO/rescue Dose Response, 0.313 uM", "result": "109.261 and 111.474"}, {"measurement": "BRD4 level, Western blot quantification (DMSO = 100)", "setting": "Fig S6f, 22RV1 KO/rescue Dose Response, 0.625 uM", "result": "106.365 and 96.1732"}, {"measurement": "BRD4 level, Western blot quantification (DMSO = 100)", "setting": "Fig S6f, 22RV1 KO/rescue Dose Response, 1.25 uM", "result": "91.1283 and 87.0112"}, {"measurement": "BRD4 level, Western blot quantification (DMSO = 100)", "setting": "Fig S6f, 22RV1 KO/rescue Dose Response, 2.5 uM", "result": "95.8637 and 80.8873"}, {"measurement": "BRD4 level, Western blot quantification (DMSO = 100)", "setting": "Fig S6f, 22RV1 KO/rescue Dose Response, 5 uM", "result": "91.3116 and 76.191"}, {"measurement": "BRD4 level, Western blot quantification (DMSO = 100)", "setting": "Fig S6f, 22RV1 KO/rescue Dose Response, 10uM", "result": "79.6577 and 57.9117"}, {"measurement": "BRD4 level, Western blot quantification (DMSO = 100)", "setting": "Fig S6g, SKBR3 Time course, 1 uM, 2hr", "result": "104.311 and 100.652"}, {"measurement": "BRD4 level, Western blot quantification (DMSO = 100)", "setting": "Fig S6g, SKBR3 Time course, 1 uM, 4hr", "result": "75.4286 and 82.2353"}, {"measurement": "BRD4 level, Western blot quantification (DMSO = 100)", "setting": "Fig S6g, SKBR3 Time course, 1 uM, 8hr", "result": "78.3987 and 72.5234"}, {"measurement": "BRD4 level, Western blot quantification (DMSO = 100)", "setting": "Fig S6g, SKBR3 Time course, 5 uM, 2hr", "result": "109.415 and 100.234"}, {"measurement": "BRD4 level, Western blot quantification (DMSO = 100)", "setting": "Fig S6g, SKBR3 Time course, 5 uM, 4hr", "result": "59.7954 and 68.2545"}, {"measurement": "BRD4 level, Western blot quantification (DMSO = 100)", "setting": "Fig S6g, SKBR3 Time course, 5 uM, 8hr", "result": "59.199 and 52.2362"}, {"measurement": "BRD4 level, Western blot quantification (DMSO = 100)", "setting": "Fig S6i, SKBR3, 5uM", "result": "72.6081 and 84.277"}, {"measurement": "BRD4 level, Western blot quantification (DMSO = 100)", "setting": "Fig S6i, U2OS, 5uM", "result": "157.053 and 196.781"}, {"measurement": "BRD4 level, Western blot quantification (DMSO = 100)", "setting": "Fig S6h, U2OS Time course, 5uM, 2hr", "result": "126.968 and 100.342"}]}]}
